We go through 12 compounds from patent publication US12459912B2 (priority 2020, dated 2025).

Assay [1] addresses T1, human 5-HT transporter (hSERT) (Homo sapiens, UniProt P31645).
T1 construct: expressed in transfected cells; host or cells: CHO cells
The assay is described as follows: Human serotonin transporter antagonist radioligand assay ([^3H]imipramine, CHO cells). Format: binding. As for the experimental part: We therefore separately measured interactions with these transporters using two additional types of assays: an antagonist radioligand assay of inhibition of the human 5-HT transporter (hSERT) expressed in CHO cells (Tatsumi, M. et al. (1999), Eur. J. Pharmacol., 368: 277-283) and an assay measuring release of [^3H] […] While the former is sensitive to classic reuptake inhibition, the latter can detect the effects of substrates, which also induce release.
Benzothiophene derivatives were evaluated for inhibiting the human 5-HT transporter (hSERT) as expressed in CHO cells using an antagonist radioligand assay (Tatsumi, M. et al. (1999), Eur. J. Pharmacol., 368: 277-283). […] Test compounds were assayed in three trials at […], and 0.94868 μM.
When compounds are substrates for monoamine transporters instead of solely inhibitors, it is known that IC50 values underestimate their potency for interacting with these transporters (Ilic, M. et al. (2020), Frontiers in Pharmacology 11: 673).

Assay [2] concerns the target T2, human DAT (Homo sapiens, UniProt Q01959).
T2 construct: expressed in transfected cells
Put plainly: hDAT [^3H]dopamine release assay (CHO cells). Format: cell-based. The note with it: for DAT/SERT ratio: (DAT EC50)^−1/(SERT EC50)^−1, larger numbers indicate higher DAT selectivity; for [^3H]-labeled dopamine release (figure legend): percent of max release compared to a control, as function of concentration.

Assay [3] concerns the target 5-Hydroxytryptamine (Serotonin) Receptor 1B (5-HT1B) (Homo sapiens, UniProt P28222). The assay is described as follows: 5-HT1B/cAMP. The class given is cell-based. Particulars: EC50 at 5-HT1B, agonist.
The subject of assay [4] is Swiss CD 1 mice. The assay is described as follows: Marble burying test. The class given is in vivo. Particulars: racemic compounds, intraperitoneally 30 minutes before a 30-min session.
Assay [5] deals with T3, human SERT (Homo sapiens, UniProt P31645).
T3 construct: expressed in transfected cells
T3 sequence (P31645 whole entry): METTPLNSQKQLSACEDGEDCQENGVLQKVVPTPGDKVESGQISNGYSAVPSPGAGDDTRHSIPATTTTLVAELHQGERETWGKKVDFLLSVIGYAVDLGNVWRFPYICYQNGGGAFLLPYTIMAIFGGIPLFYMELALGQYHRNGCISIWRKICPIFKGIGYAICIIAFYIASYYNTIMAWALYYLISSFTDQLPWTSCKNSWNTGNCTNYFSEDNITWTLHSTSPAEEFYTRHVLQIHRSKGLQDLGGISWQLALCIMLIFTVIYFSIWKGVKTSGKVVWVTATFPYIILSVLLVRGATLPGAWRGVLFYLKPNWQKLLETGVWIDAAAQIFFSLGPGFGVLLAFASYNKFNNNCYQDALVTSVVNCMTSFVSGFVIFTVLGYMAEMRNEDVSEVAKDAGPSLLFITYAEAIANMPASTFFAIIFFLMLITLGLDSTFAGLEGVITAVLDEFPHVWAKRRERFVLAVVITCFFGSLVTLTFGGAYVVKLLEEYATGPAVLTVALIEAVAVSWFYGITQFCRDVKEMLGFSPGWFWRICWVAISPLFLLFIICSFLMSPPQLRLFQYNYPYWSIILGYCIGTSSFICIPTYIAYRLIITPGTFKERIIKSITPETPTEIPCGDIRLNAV
The assay is described as follows: hSERT [^3H]serotonin release assay (CHO cells). Format: cell-based. Particulars: for [^3H]-labeled serotonin release (figure legend): percent of max release compared to a control, as function of concentration.

The conditions of assay [6]: Poos 1967; cited from earlier work.
The target in assay [7] is MAO-A (Rattus norvegicus, UniProt P21396). Particulars: read-out: IC50 MAO-A; Vallejos et al. 2005; cited from earlier work.
Chain of MAO-A (P21396 whole entry): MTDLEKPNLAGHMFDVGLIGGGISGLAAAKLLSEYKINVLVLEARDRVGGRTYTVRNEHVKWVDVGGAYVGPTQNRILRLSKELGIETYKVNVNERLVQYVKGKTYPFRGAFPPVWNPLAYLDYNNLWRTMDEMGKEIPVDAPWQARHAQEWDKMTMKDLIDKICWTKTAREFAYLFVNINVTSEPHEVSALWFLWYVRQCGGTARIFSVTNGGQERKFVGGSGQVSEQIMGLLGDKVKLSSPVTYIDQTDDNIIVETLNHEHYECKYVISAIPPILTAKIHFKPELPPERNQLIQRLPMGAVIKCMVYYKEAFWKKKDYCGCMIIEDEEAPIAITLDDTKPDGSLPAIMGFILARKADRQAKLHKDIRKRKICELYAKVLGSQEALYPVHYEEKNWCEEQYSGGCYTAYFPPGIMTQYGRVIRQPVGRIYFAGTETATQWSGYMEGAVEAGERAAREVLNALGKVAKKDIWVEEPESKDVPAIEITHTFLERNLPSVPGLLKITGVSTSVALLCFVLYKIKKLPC
The target of assay [8] is 5-HT1B (Homo sapiens, UniProt P28222). Particulars: Ray 2010; cited from earlier work.
Chain of 5-HT1B (P28222 whole entry, species assumed): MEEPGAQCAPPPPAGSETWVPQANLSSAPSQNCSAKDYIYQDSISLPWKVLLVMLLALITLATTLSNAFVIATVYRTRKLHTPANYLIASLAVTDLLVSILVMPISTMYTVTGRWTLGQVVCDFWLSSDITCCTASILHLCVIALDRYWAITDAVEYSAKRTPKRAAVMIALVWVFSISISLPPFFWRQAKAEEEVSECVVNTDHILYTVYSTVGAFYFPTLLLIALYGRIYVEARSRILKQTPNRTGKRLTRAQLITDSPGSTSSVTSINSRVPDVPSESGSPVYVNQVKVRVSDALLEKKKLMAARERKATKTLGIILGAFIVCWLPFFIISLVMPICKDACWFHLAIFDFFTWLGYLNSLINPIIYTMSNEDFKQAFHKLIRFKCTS
The subject of assay [9] is neuritogenesis. The note with it: Ly et al. 2018, cited from earlier work.
The target of assay [10] is T4, nAChR(a4/b2) (Nicotinic acetylcholine Receptor α4 β2) (Homo sapiens, UniProt P17787+P43681).
T4 construct: expressed in transfected cells
T4 sequence (P43681 29-627 limits assumed): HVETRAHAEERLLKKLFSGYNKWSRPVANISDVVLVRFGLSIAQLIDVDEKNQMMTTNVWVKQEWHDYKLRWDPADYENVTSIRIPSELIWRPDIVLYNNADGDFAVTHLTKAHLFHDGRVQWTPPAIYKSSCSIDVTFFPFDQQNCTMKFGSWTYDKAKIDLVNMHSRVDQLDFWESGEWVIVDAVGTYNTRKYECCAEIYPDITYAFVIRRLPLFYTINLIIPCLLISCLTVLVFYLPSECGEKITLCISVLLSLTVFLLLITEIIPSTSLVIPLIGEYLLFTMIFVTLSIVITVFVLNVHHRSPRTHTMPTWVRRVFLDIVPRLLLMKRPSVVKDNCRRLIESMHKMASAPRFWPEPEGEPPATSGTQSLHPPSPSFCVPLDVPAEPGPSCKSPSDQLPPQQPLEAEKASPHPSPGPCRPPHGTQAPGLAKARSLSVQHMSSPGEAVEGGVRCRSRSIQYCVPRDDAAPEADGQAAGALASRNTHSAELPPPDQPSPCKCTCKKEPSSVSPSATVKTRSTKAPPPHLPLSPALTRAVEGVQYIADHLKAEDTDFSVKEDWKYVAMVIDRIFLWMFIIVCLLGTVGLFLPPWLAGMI
T4 sequence (P17787 26-502): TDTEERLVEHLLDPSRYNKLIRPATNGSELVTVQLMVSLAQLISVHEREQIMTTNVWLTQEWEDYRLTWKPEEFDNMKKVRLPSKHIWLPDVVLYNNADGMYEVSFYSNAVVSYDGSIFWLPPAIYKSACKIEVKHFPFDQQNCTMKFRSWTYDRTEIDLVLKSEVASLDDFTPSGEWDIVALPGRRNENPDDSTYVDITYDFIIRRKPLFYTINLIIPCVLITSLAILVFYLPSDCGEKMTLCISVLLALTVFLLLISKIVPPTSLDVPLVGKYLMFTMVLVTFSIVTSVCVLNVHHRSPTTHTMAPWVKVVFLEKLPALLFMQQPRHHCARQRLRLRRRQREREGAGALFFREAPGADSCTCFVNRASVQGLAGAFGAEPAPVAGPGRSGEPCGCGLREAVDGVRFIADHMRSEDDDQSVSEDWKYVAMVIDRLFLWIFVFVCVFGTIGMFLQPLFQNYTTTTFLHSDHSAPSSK
The assay is described as follows: cell-based. The note with it: reference compound, Blocker mode; read-out: RC50 (μM), Result Type IC50.

The target in assay [11] is T5, GABAA (Gamma-aminobutyric acid Receptor A).
T5 construct: other: opener
Format: cell-based. The note with it: reference compound, Blocker mode; read-out: RC50 (μM), Result Type IC50.

Entries after “also recorded” stand apart in the source; their conditions may differ.

Chain of 5-Hydroxytryptamine (Serotonin) Receptor 1B (5-HT1B) (P28222 whole entry): as the sequence (P28222 whole entry, species assumed) above
T2 sequence (Q01959 whole entry): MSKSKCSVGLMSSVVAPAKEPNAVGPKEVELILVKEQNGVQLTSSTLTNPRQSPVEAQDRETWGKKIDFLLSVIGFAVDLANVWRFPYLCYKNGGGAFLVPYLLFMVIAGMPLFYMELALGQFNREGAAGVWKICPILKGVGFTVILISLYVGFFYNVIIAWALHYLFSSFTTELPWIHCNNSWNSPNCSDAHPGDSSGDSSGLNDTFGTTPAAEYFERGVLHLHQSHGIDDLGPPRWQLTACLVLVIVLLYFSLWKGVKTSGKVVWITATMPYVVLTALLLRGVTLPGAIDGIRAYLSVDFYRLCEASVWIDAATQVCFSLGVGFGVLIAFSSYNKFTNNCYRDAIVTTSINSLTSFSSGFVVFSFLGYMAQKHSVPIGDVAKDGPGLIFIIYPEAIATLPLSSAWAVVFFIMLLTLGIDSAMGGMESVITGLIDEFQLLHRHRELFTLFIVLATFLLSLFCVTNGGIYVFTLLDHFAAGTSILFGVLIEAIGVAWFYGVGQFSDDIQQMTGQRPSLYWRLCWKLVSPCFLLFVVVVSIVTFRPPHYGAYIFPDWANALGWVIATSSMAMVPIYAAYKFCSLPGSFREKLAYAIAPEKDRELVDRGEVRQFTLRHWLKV
T1 sequence (P31645 whole entry): as the sequence (P31645 whole entry) above

Regarding `CNC(C)Cc1ccc2sccc2c1` (stereo not shown), in assay [1], the half-maximal inhibitory concentration (IC50) (as a rule, the concentration that inhibits the measured activity by half) is 250 nM and the Ki – broadly, a dissociation constant, usually derived from enzyme kinetics or from competition with a known ligand – was found to be 120 nM.
In [1], `CNC(C)C(=O)c1ccc2sccc2c1` (stereo not shown) showed a 50% inhibitory concentration (IC50) of 2000 nM and a Ki of 900 nM.
For `CCNC(C)Cc1ccc2sccc2c1` (stereo not shown) the same measures were 100 nM and 50 nM.
Regarding `CNC(C)C(=O)c1ccc2sccc2c1.Cl` (stereo not shown) [Bk-5-MAPBT, 1-(benzo[b]thiophen-5-yl)-2-(methylamino) propan-1-one hydrochloride], in assay [2], the midpoint of the response, the EC50, lay at 194 nM; the DAT/SERT ratio is on record as 0.52; the “[^3H]-labeled dopamine release (figure legend)” value (from here on “[^3H]-labeled dopamine release”) is “rapidly induces extracellular dopamine and serotonin release”. The response in assay [3] was half-maximal at 59 nM (EC50). In addition, the “anxiolytic effect (marbles left unburied versus placebo)” value in [4] was “dose-dependent anxiolytic effects”. Moreover, in [5], a half-maximal response (EC50) required 101 nM; the “[^3H]-labeled serotonin release (figure legend)” value (from here on “[^3H]-labeled serotonin release”) is “rapidly induces extracellular dopamine and serotonin release”.
Turning to `CC(N)Cc1csc2ccccc12` (stereo not shown) [Compound 3-APBT, 1-(1-benzothiophen-3-yl)propan-2-amine], in assay [6], the effect on appetite entry was “acted to reduce appetite”. Also, in assay [7], the IC50 is 16200 ± 400 nM.
Turning to `CCNC(C)Cc1ccc2sccc2c1.Cl` (stereo not shown) [Compound 5-EAPBT, 1-(benzothiophen-5-yl)-N-ethylpropan-2-amine hydrochloride], in assay [2], the concentration for a half-maximal effect (EC50) (commonly the concentration that produces a half-maximal response) was determined as 98 nM; the DAT/SERT ratio is 0.54; the “[^3H]-labeled dopamine release” value is “rapidly induces extracellular dopamine and serotonin release”. The “dopamine release Emax in comparison to the reference releaser amphetamine” value in assay [2] (high concentrations, 100 μM amphetamine as reference, hydrochloride) is given as “partial DAT substrate; also recorded: Emax below that of the reference releaser”. The “anxiolytic effect (marbles left unburied versus placebo)” value in [4] is “dose-dependent anxiolytic effects”. In assay [5], the EC50 worked out at 53 nM; the “[^3H]-labeled serotonin release” value is “rapidly induces extracellular dopamine and serotonin release”.
On to `CNC(C)Cc1ccc2sccc2c1.Cl` (stereo not shown) [Compound 5-MAPBT, 1-(benzothiophen-5-yl)-N-methylpropan-2-amine hydrochloride], for which, in assay [2], the 50% effective concentration (EC50) worked out at 129 nM; the DAT/SERT ratio came to 0.18; the “[^3H]-labeled dopamine release” value is “rapidly induces extracellular dopamine and serotonin release”. In assay [3], this compound gave an EC50 of 38 nM. The “anxiolytic effect (marbles left unburied versus placebo)” value in [4] is on record as “dose-dependent anxiolytic effects”. In assay [5], the concentration for a half-maximal effect (EC50) came to 23 nM; the “[^3H]-labeled serotonin release” value was “rapidly induces extracellular dopamine and serotonin release”.
For the compound `CNC(C)Cc1ccc2ccsc2c1.Cl` (stereo not shown) [Compound 6-MAPBT, 1-(benzothiophen-6-yl)-N-methylpropan-2-amine hydrochloride], in [2], the EC50 was determined as 71 nM; the DAT/SERT ratio was 0.80; the “[^3H]-labeled dopamine release” value was “rapidly induces extracellular dopamine and serotonin release”. Also, a half-maximal response in assay [3] (EC50) required 24 nM. Besides, the “anxiolytic effect (marbles left unburied versus placebo)” value in [4] is on record as “dose-dependent anxiolytic effects”. Further, in assay [5], the EC50 was 57 nM; the “[^3H]-labeled serotonin release” value is “rapidly induces extracellular dopamine and serotonin release”.
As to `CNC(C)Cc1ccc2c(c1)OCO2` (stereo not shown) [MDMA], the “binding to 5-HT1B” value in assay [8] is recorded as “does not bind directly”. Further, the “Emax for promoting neuritogenesis relative to ketamine” value in [9] is on record as “approximately twice that of ketamine”. Besides, the 50% effective concentration (EC50) in assay [9] (read-out: EC50 for promoting neuritogenesis) was 7.41 nM.
In assay [1], `CNC(C)Cc1ccc2ccsc2c1` (stereo not shown) [drawing 525] registered a concentration for half-maximal inhibition (IC50) of 1500 nM and an inhibitory constant (Ki) of 680 nM.
“Dihydro-AY-erythroidine [reference compound]”: the IC50 in assay [10] is 0.682 µM.
As to Picrotoxin [reference compound], the IC50 in assay [11] was found to be 2.78 µM.
